This is an account of results in patent publication US20110104805A1, “Pluripotent Stem Cells” (CENTOCOR ORTHO BIOTECH INC., priority 2009, published 2011).

The test system of assay [1] is AFD1 cells. Description: Attachment / plating efficiency on surface modified plate 4 without feeder cells or adlayer. Particulars: surface modified plate 4, MEF conditioned media. It counts as cell-based. The protocol: The pluripotent stem cell line AFD1, was maintained in MEF conditioned media on Nunclon Delta™ plates treated with a 1:30 dilution of growth factor reduced MATRIGEL™ prior to study. Cells were dissociated from the surface for passage by 1 mg/ml dispase dissociation. AFD1 cells were then seeded onto untreated wells of surface modified plate 4 (6-well format). In parallel, AFD1 cells were also plated onto Nunclon Delta™ plates treated with 1:30 dilution of growth factor reduced MATRIGEL™ to provide as positive controls. In all treatments cells were maintained in MEF conditioned media. AFD1 cells seeded onto surface modified plate 4 did attach, however the attachment efficiency was much lower than on control plates (FIG. 11). […] Cells were thereafter maintained in a constant 10 μM Y-27632 concentration or a reduced 1 μM concentration of H1152-glycyl, respectively, with daily media change.

Assay [2] deals with AFD1 cells. Description: qRT-PCR gene expression after two passages on surface modified plate 4 with Rho kinase inhibitor. It counts as cell-based. Particulars: AFD1 passaged twice on modified surface 4 versus control plates. The procedure:
Cells were passaged twice on surface modified plate 4 in the presence of either Y-27632 or H1152-glycyl and were tested for the expression of genes associated with pluripotency by qRT-PCR (FIG. 12). Expression of genes associated with and required for pluripotency (OCT4, NANOG, SOX2, TERT, and CRIPTO/TDGF) was maintained in AFD1 cells grown on modified surface 4 versus cells grown on control plates. […] This may have been due to increased expression of NANOG, which inhibits differentiation by suppressing expression of extra-embryonic ectoderm or trophoblast associated genes. Additionally, this decrease in expression of extra-embryonic ectoderm or trophoblast associated genes could occur through differential adhesion and proliferation of cells more pluripotent, and less differentiated, on modified surface 4 versus control plates.

On to `C[C@@H](N)[C@H]1CC[C@H](C(=O)Nc2ccncc2)CC1` [Clone Y-27632], for which the “plating efficiency of the cells” value in the assay on AFD1 cells [1] (10 μM for the first 24 hours in culture) is on record as “significantly increased”. Further, in the assay on AFD1 cells [2], the “Expression of genes associated with and required for pluripotency (OCT4, NANOG, SOX2, TERT, and CRIPTO/TDGF)” value is given as “maintained”; the “relative expression of AFP, HAND2, and GATA2 (spontaneous differentiation genes)” value is “decreased significantly”.

As to `Cc1cncc2cccc(S(=O)(=O)N3CCCN(C(=O)CN)C[C@@H]3C)c12.Cl.Cl` [Clone H1152-glycyl, (S)-(+)-4-Glycyl-2-methyl-1-[(4-methyl-5-isoquinolinyl)sulfonyl]hexahydro-1H-1,4-diazepine dihydrochloride], the “plating efficiency of the cells” value in the assay with AFD1 cells [1] (3 μM for the first 24 hours in culture) is recorded as “significantly increased”. Moreover, in the assay on AFD1 cells [2], the “Expression of genes associated with and required for pluripotency (OCT4, NANOG, SOX2, TERT, and CRIPTO/TDGF)” value is listed as “maintained”; the “relative expression of AFP, HAND2, and GATA2 (spontaneous differentiation genes)” value is “decreased significantly”.
